Several values for one entry are separate records, joined by “and”; a condition that tells them apart may be missing. Equal entries are not always repeated.
System: NCI-H1341 complex spheroids, percent test/control
Test: Anticancer human tumor NCI-H1341 cell line growth inhibition [AhR];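 note: spheroids exposed to agents for seven days before readout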
Settings: for viability, T/C: stronger effect = lower value
Method in brief: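 Agents were dosed in half-log steps down from roughly clinical Cmax, or from 10 microM where Cmax was unknown, alone and with AhR antagonists. Read-out: percent test/control growth of tumor spheroids containing HUVEC and MSC stromal cells.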

[1] = curve of first compound, second compound 0.1 µM
[2] = curve of first compound, second compound 0.316 µM
[3] = curve of first compound, second compound 1 µM
[4] = curve of first compound, second compound 3.16 µM
[5] = curve of first compound, second compound 10 µM
[6] = second compound 0.1 µM, first compound 0.000949 µM
[7] = second compound 0.1 µM, first compound 0.003 µM
[8] = second compound 0.1 µM, first compound 0.00949 µM
[9] = second compound 0.1 µM, first compound 0.03 µM
[10] = second compound 0.1 µM, first compound 0.0949 µM
[11] = second compound 0.1 µM, first compound 0.3 µM
[12] = second compound 0.316 µM, first compound 0.000949 µM
[13] = second compound 0.316 µM, first compound 0.003 µM
[14] = second compound 0.316 µM, first compound 0.00949 µM
[15] = second compound 0.316 µM, first compound 0.03 µM
[16] = second compound 0.316 µM, first compound 0.0949 µM
[17] = second compound 0.316 µM, first compound 0.3 µM
[18] = second compound 1 µM, first compound 0.000949 µM
[19] = second compound 1 µM, first compound 0.003 µM
[20] = second compound 1 µM, first compound 0.00949 µM
[21] = second compound 1 µM, first compound 0.03 µM
[22] = second compound 1 µM, first compound 0.0949 µM
[23] = second compound 1 µM, first compound 0.3 µM
[24] = second compound 3.16 µM, first compound 0.000949 µM
[25] = second compound 3.16 µM, first compound 0.003 µM
[26] = second compound 3.16 µM, first compound 0.00949 µM
[27] = second compound 3.16 µM, first compound 0.03 µM
[28] = second compound 3.16 µM, first compound 0.0949 µM
[29] = second compound 3.16 µM, first compound 0.3 µM
[30] = second compound 10 µM, first compound 0.000949 µM
[31] = second compound 10 µM, first compound 0.003 µM
[32] = second compound 10 µM, first compound 0.00949 µM
[33] = second compound 10 µM, first compound 0.03 µM
[34] = second compound 10 µM, first compound 0.0949 µM
[35] = second compound 10 µM, first compound 0.3 µM
[36] = second compound 0.1 µM, first compound 0.0316 µM
[37] = second compound 0.1 µM, first compound 0.1 µM
[38] = second compound 0.1 µM, first compound 0.316 µM
[39] = second compound 0.1 µM, first compound 1 µM
[40] = second compound 0.1 µM, first compound 3.16 µM
[41] = second compound 0.1 µM, first compound 10 µM
[42] = second compound 0.316 µM, first compound 0.0316 µM
[43] = second compound 0.316 µM, first compound 0.1 µM
[44] = second compound 0.316 µM, first compound 0.316 µM
[45] = second compound 0.316 µM, first compound 1 µM
[46] = second compound 0.316 µM, first compound 3.16 µM
[47] = second compound 0.316 µM, first compound 10 µM
[48] = second compound 1 µM, first compound 0.0316 µM
[49] = second compound 1 µM, first compound 0.1 µM
[50] = second compound 1 µM, first compound 0.316 µM
[51] = second compound 1 µM, first compound 1 µM
[52] = second compound 1 µM, first compound 3.16 µM
[53] = second compound 1 µM, first compound 10 µM
[54] = second compound 3.16 µM, first compound 0.0316 µM
[55] = second compound 3.16 µM, first compound 0.1 µM
[56] = second compound 3.16 µM, first compound 0.316 µM
[57] = second compound 3.16 µM, first compound 1 µM
[58] = second compound 3.16 µM, first compound 3.16 µM
[59] = second compound 3.16 µM, first compound 10 µM
[60] = second compound 10 µM, first compound 0.0316 µM
[61] = second compound 10 µM, first compound 0.1 µM
[62] = second compound 10 µM, first compound 0.316 µM
[63] = second compound 10 µM, first compound 1 µM
[64] = second compound 10 µM, first compound 3.16 µM
[65] = second compound 10 µM, first compound 10 µM

CC(C)CC(NC(=O)C(Cc1ccccc1)NC(=O)c1cnccn1)B(O)O (stereo not drawn) + Cc1ccccc1N=Nc1ccc(NC(=O)c2ccnn2C)c(C)c1
IC50 [1]: 5.09 nM
IC50 [2]: 5.12 nM
IC50 [3]: 4.96 nM
IC50 [4]: 4.3 nM
IC50 [5]: 3.45 nM
viability, T/C [6]: 116%
viability, T/C [7]: 90.2%
viability, T/C [8]: 2.67%
viability, T/C [9]: 0.15%
viability, T/C [10]: 0.06%
viability, T/C [11]: 0.19%
viability, T/C [12]: 92.6%
viability, T/C [13]: 91.1%
viability, T/C [14]: 2.6%
viability, T/C [15]: 0.07%
viability, T/C [16]: 0.07%
viability, T/C [17]: 0.15%
viability, T/C [18]: 83%
viability, T/C [19]: 89.7%
viability, T/C [20]: 3.18%
viability, T/C [21]: 0.12%
viability, T/C [22]: 0.08%
viability, T/C [23]: 0.18%
viability, T/C [24]: 85%
viability, T/C [25]: 71.6%
viability, T/C [26]: 2.5%
viability, T/C [27]: 0.06%
viability, T/C [28]: 0.09%
viability, T/C [29]: 0.2%
viability, T/C [30]: 50.5%
viability, T/C [31]: 62.5%
viability, T/C [32]: 2.63%
viability, T/C [33]: 0.39%
viability, T/C [34]: 0.18%
viability, T/C [35]: 0.31%

COc1cc(Nc2ncc3c(n2)-c2ccc(Cl)cc2C(c2c(F)cccc2OC)=NC3)ccc1C(=O)O + CC(CO)NC(=O)c1cc(-c2ccc(Cl)cc2)nn(-c2cnn(C)c2)c1=O
IC50 [1]: < 31.6 nM
IC50 [2]: < 31.6 nM
IC50 [3]: < 31.6 nM
IC50 [4]: < 31.6 nM
IC50 [5]: < 31.6 nM
viability, T/C [36]: 39.7%
viability, T/C [37]: 45.7%
viability, T/C [38]: 37.7%
viability, T/C [39]: 34.2%
viability, T/C [40]: 28.7%
viability, T/C [41]: 28.6%
viability, T/C [42]: 50.5%
viability, T/C [43]: 34.5%
viability, T/C [44]: 35.5%
viability, T/C [45]: 38.2%
viability, T/C [46]: 29.5%
viability, T/C [47]: 27.6%
viability, T/C [48]: 46.4%
viability, T/C [49]: 44.2%
viability, T/C [50]: 37.2%
viability, T/C [51]: 37.5%
viability, T/C [52]: 33.1%
viability, T/C [53]: 26.7%
viability, T/C [54]: 38.4%
viability, T/C [55]: 35.4%
viability, T/C [56]: 34%
viability, T/C [57]: 35.8%
viability, T/C [58]: 30.6%
viability, T/C [59]: 27.6%
viability, T/C [60]: 35.6%
viability, T/C [61]: 39.7%
viability, T/C [62]: 39%
viability, T/C [63]: 29.2%
viability, T/C [64]: 27%
viability, T/C [65]: 28.2%

O=C(C=Cc1cccc(S(=O)(=O)Nc2ccccc2)c1)NO
viability, T/C (compound 0.0316 µM): 91.7% and 96.1% and 95.8%
viability, T/C (compound 0.1 µM): 87.7% and 85.4% and 80.2%
viability, T/C (compound 0.316 µM): 61.3% and 59% and 42.5%
viability, T/C (compound 1 µM): 17% and 24% and 28%
viability, T/C (compound 3.16 µM): 7.15% and 7.86% and 8.15%
viability, T/C (compound 10 µM): 1.07% and 0.78% and 0.36%
IC50 (curve of compound): 425 nM and 423 nM and 295 nM

Cc1ccccc1N=Nc1ccc(NC(=O)c2ccnn2C)c(C)c1
viability, T/C (compound 10 µM): 56.2% [middle of 20 runs]

CCc1c2c(nc3ccc(O)cc13)-c1cc3c(c(=O)n1C2)COC(=O)[C@]3(O)CC + CC(CO)NC(=O)c1cc(-c2ccc(Cl)cc2)nn(-c2cnn(C)c2)c1=O
IC50 [1]: 12.3 nM
IC50 [2]: 7.9 nM
IC50 [3]: 9.6 nM
IC50 [4]: 5.17 nM
IC50 [5]: 3.47 nM
viability, T/C [6]: 67.7%
viability, T/C [7]: 74%
viability, T/C [8]: 46.6%
viability, T/C [9]: 38.8%
viability, T/C [10]: 30.7%
viability, T/C [11]: 16.9%
viability, T/C [12]: 71.8%
viability, T/C [13]: 61.8%
viability, T/C [14]: 48.1%
viability, T/C [15]: 33.4%
viability, T/C [16]: 26.5%
viability, T/C [17]: 16%
viability, T/C [18]: 62.8%
viability, T/C [19]: 67.6%
viability, T/C [20]: 48.2%
viability, T/C [21]: 31.4%
viability, T/C [22]: 29.5%
viability, T/C [23]: 17.4%
viability, T/C [24]: 73%
viability, T/C [25]: 53.2%
viability, T/C [26]: 39%
viability, T/C [27]: 37.4%
viability, T/C [28]: 26.5%
viability, T/C [29]: 14.1%
viability, T/C [30]: 61%
viability, T/C [31]: 47.9%
viability, T/C [32]: 43.8%
viability, T/C [33]: 32.4%
viability, T/C [34]: 23.4%
viability, T/C [35]: 10.8%

O=C(c1cc(Cc2n[nH]c(=O)c3ccccc23)ccc1F)N1CCN(C(=O)C2CC2)CC1 + CC(CO)NC(=O)c1cc(-c2ccc(Cl)cc2)nn(-c2cnn(C)c2)c1=O
IC50 [1]: > 10000 nM
IC50 [2]: > 10000 nM
IC50 [3]: > 10000 nM
IC50 [4]: > 10000 nM
IC50 [5]: > 10000 nM
viability, T/C [36]: 89.5%
viability, T/C [37]: 98.4%
viability, T/C [38]: 93.7%
viability, T/C [39]: 89.2%
viability, T/C [40]: 82.4%
viability, T/C [41]: 70.6%
viability, T/C [42]: 96.1%
viability, T/C [43]: 93.6%
viability, T/C [44]: 91.6%
viability, T/C [45]: 80.1%
viability, T/C [46]: 77.1%
viability, T/C [47]: 72.7%
viability, T/C [48]: 80.6%
viability, T/C [49]: 105%
viability, T/C [50]: 97.3%
viability, T/C [51]: 81.5%
viability, T/C [52]: 86.8%
viability, T/C [53]: 74.6%
viability, T/C [54]: 94.4%
viability, T/C [55]: 90.6%
viability, T/C [56]: 94.8%
viability, T/C [57]: 75.9%
viability, T/C [58]: 84.2%
viability, T/C [59]: 60.7%
viability, T/C [60]: 70.2%
viability, T/C [61]: 77.5%
viability, T/C [62]: 85%
viability, T/C [63]: 65.9%
viability, T/C [64]: 71.9%
viability, T/C [65]: 58.6%

CC1COCCN1c1cc(C2(S(C)(=N)=O)CC2)nc(-c2ccnc3[nH]ccc23)n1 (stereo not drawn) + CC(CO)NC(=O)c1cc(-c2ccc(Cl)cc2)nn(-c2cnn(C)c2)c1=O
IC50 [1]: 1600 nM
IC50 [2]: 1090 nM
IC50 [3]: 1540 nM
IC50 [4]: 1490 nM
IC50 [5]: 956 nM
viability, T/C [36]: 89.6%
viability, T/C [37]: 83.2%
viability, T/C [38]: 96.7%
viability, T/C [39]: 64.9%
viability, T/C [40]: 29.7%
viability, T/C [41]: 21.9%
viability, T/C [42]: 78.8%
viability, T/C [43]: 93.5%
viability, T/C [44]: 70.1%
viability, T/C [45]: 51.1%
viability, T/C [46]: 32.4%
viability, T/C [47]: 20.4%
viability, T/C [48]: 77.3%
viability, T/C [49]: 88.5%
viability, T/C [50]: 88.4%
viability, T/C [51]: 57.1%
viability, T/C [52]: 35.5%
viability, T/C [53]: 19.6%
viability, T/C [54]: 95.8%
viability, T/C [55]: 86.3%
viability, T/C [56]: 87.8%
viability, T/C [57]: 58.6%
viability, T/C [58]: 31.7%
viability, T/C [59]: 17.6%
viability, T/C [60]: 83.2%
viability, T/C [61]: 84.9%
viability, T/C [62]: 67.9%
viability, T/C [63]: 52.1%
viability, T/C [64]: 24.8%
viability, T/C [65]: 18.8%

Source: PubChem BioAssay AID1919014 (Molecular Pharmacology Branch, DTP, NCI, 2023)
